# Test results taken from US7279161B2, “Factor IX/factor IXa activating antibodies and antibody derivatives” (Baxter Aktiengesellschaft, priority 1999, dated 2007).
# Tested on: FVIII deficient plasma
# Assay: aPTT based one stage clotting assay in FVIII deficient plasma
# Type: biochemical, human
# Method in brief: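 Test samples preincubated 4 min with FVIII-deficient plasma and aPTT reagent (DAPTTIN or Pathromtin SL), optionally with 50 ng activated FIX; clotting started with 25 mM CaCl2. Read-out is clotting time from start to clot formation, set against FVIII, buffer or scrambled-peptide controls.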
sequence,measurement,setting,value
RRREGGGYYVNWYFDRRR [A1/3],reduction in the clotting time,"Pathromtin SL, in the absence of FIXa",no reduction of the clotting time was detectable
same,reduction in the clotting time,"Pathromtin SL, in the presence of FIXa",dose dependent reduction in the clotting time
same,average clotting time,"Table 3A Exp. 1, DAPTTIN, 2.5 μM, 2.2 nM FIXa",91 s
same,clotting time,"Table 3A Exp. 1, DAPTTIN, 2.5 μM, 2.2 nM FIXa, duplicate 1",91.1 s
same,clotting time,"Table 3A Exp. 1, DAPTTIN, 2.5 μM, 2.2 nM FIXa, duplicate 2",91 s
same,average clotting time,"Table 3A Exp. 1, DAPTTIN, 2.5 μM, w/o FIXa",105 s
same,clotting time,"Table 3A Exp. 1, DAPTTIN, 2.5 μM, w/o FIXa, duplicate 1",105.2 s
same,clotting time,"Table 3A Exp. 1, DAPTTIN, 2.5 μM, w/o FIXa, duplicate 2",104.8 s
same,average clotting time,"Table 3A Exp. 1, DAPTTIN, 7.5 μM, 2.2 nM FIXa",73 s
same,clotting time,"Table 3A Exp. 1, DAPTTIN, 7.5 μM, 2.2 nM FIXa, duplicate 1",73.1 s
same,clotting time,"Table 3A Exp. 1, DAPTTIN, 7.5 μM, 2.2 nM FIXa, duplicate 2",72.7 s
same,average clotting time,"Table 3A Exp. 1, DAPTTIN, 7.5 μM, w/o FIXa",98 s
same,clotting time,"Table 3A Exp. 1, DAPTTIN, 7.5 μM, w/o FIXa, duplicate 1",97.8 s
same,clotting time,"Table 3A Exp. 1, DAPTTIN, 7.5 μM, w/o FIXa, duplicate 2",97.9 s
same,average clotting time,"Table 3A Exp. 1, DAPTTIN, 12.5 μM, 2.2 nM FIXa",60 s
same,clotting time,"Table 3A Exp. 1, DAPTTIN, 12.5 μM, 2.2 nM FIXa, duplicate 1",60.2 s
same,clotting time,"Table 3A Exp. 1, DAPTTIN, 12.5 μM, 2.2 nM FIXa, duplicate 2",58.9 s
same,average clotting time,"Table 3A Exp. 1, DAPTTIN, 12.5 μM, w/o FIXa",80 s
same,clotting time,"Table 3A Exp. 1, DAPTTIN, 12.5 μM, w/o FIXa, duplicate 1",80.2 s
same,clotting time,"Table 3A Exp. 1, DAPTTIN, 12.5 μM, w/o FIXa, duplicate 2",80.6 s
same,average clotting time,"Table 3A Exp. 1, DAPTTIN, 15 μM, 2.2 nM FIXa",60 s
same,clotting time,"Table 3A Exp. 1, DAPTTIN, 15 μM, 2.2 nM FIXa, duplicate 1",59.3 s
same,clotting time,"Table 3A Exp. 1, DAPTTIN, 15 μM, 2.2 nM FIXa, duplicate 2",59.9 s
same,average clotting time,"Table 3A Exp. 1, DAPTTIN, 15 μM, w/o FIXa",78 s
same,clotting time,"Table 3A Exp. 1, DAPTTIN, 15 μM, w/o FIXa, duplicate 1",78.2 s
same,clotting time,"Table 3A Exp. 1, DAPTTIN, 15 μM, w/o FIXa, duplicate 2",77.1 s
same,average clotting time,"Table 3A Exp. 2, DAPTTIN, 1.25 μM, 2.2 nM FIXa",91 s
same,clotting time,"Table 3A Exp. 2, DAPTTIN, 1.25 μM, 2.2 nM FIXa, duplicate 1",90.7 s
same,clotting time,"Table 3A Exp. 2, DAPTTIN, 1.25 μM, 2.2 nM FIXa, duplicate 2",90.8 s
same,average clotting time,"Table 3A Exp. 2, DAPTTIN, 1.25 μM, w/o FIXa",109 s
same,clotting time,"Table 3A Exp. 2, DAPTTIN, 1.25 μM, w/o FIXa, duplicate 1",108.7 s
same,clotting time,"Table 3A Exp. 2, DAPTTIN, 1.25 μM, w/o FIXa, duplicate 2",109.3 s
same,average clotting time,"Table 3A Exp. 2, DAPTTIN, 2.5 μM, 2.2 nM FIXa",88 s
same,clotting time,"Table 3A Exp. 2, DAPTTIN, 2.5 μM, 2.2 nM FIXa, duplicate 1",88 s
same,clotting time,"Table 3A Exp. 2, DAPTTIN, 2.5 μM, 2.2 nM FIXa, duplicate 2",88.8 s
same,average clotting time,"Table 3A Exp. 2, DAPTTIN, 2.5 μM, w/o FIXa",110 s
same,clotting time,"Table 3A Exp. 2, DAPTTIN, 2.5 μM, w/o FIXa, duplicate 1",110.1 s
same,clotting time,"Table 3A Exp. 2, DAPTTIN, 2.5 μM, w/o FIXa, duplicate 2",108.9 s
same,average clotting time,"Table 3A Exp. 2, DAPTTIN, 5 μM, 2.2 nM FIXa",77 s
same,clotting time,"Table 3A Exp. 2, DAPTTIN, 5 μM, 2.2 nM FIXa, duplicate 1",77 s
same,clotting time,"Table 3A Exp. 2, DAPTTIN, 5 μM, 2.2 nM FIXa, duplicate 2",76 s
same,average clotting time,"Table 3A Exp. 2, DAPTTIN, 5 μM, w/o FIXa",104 s
same,clotting time,"Table 3A Exp. 2, DAPTTIN, 5 μM, w/o FIXa, duplicate 1",103.4 s
same,clotting time,"Table 3A Exp. 2, DAPTTIN, 5 μM, w/o FIXa, duplicate 2",104.8 s
same,average clotting time,"Table 3A Exp. 2, DAPTTIN, 7.5 μM, 2.2 nM FIXa",73 s
same,clotting time,"Table 3A Exp. 2, DAPTTIN, 7.5 μM, 2.2 nM FIXa, duplicate 1",71.6 s
same,clotting time,"Table 3A Exp. 2, DAPTTIN, 7.5 μM, 2.2 nM FIXa, duplicate 2",73.9 s
same,average clotting time,"Table 3A Exp. 2, DAPTTIN, 7.5 μM, w/o FIXa",100 s
same,clotting time,"Table 3A Exp. 2, DAPTTIN, 7.5 μM, w/o FIXa, duplicate 1",100.1 s
same,clotting time,"Table 3A Exp. 2, DAPTTIN, 7.5 μM, w/o FIXa, duplicate 2",100.5 s
same,average clotting time,"Table 3A Exp. 2, DAPTTIN, 10 μM, 2.2 nM FIXa",63 s
same,clotting time,"Table 3A Exp. 2, DAPTTIN, 10 μM, 2.2 nM FIXa, duplicate 1",63.1 s
same,clotting time,"Table 3A Exp. 2, DAPTTIN, 10 μM, 2.2 nM FIXa, duplicate 2",62.5 s
same,average clotting time,"Table 3A Exp. 2, DAPTTIN, 10 μM, w/o FIXa",79 s
same,clotting time,"Table 3A Exp. 2, DAPTTIN, 10 μM, w/o FIXa, duplicate 1",79.1 s
same,clotting time,"Table 3A Exp. 2, DAPTTIN, 10 μM, w/o FIXa, duplicate 2",78.5 s
same,average clotting time,"Table 3A Exp. 2, DAPTTIN, 12.5 μM, 2.2 nM FIXa",57 s
same,clotting time,"Table 3A Exp. 2, DAPTTIN, 12.5 μM, 2.2 nM FIXa, duplicate 1",56.7 s
same,clotting time,"Table 3A Exp. 2, DAPTTIN, 12.5 μM, 2.2 nM FIXa, duplicate 2",56.7 s
same,average clotting time,"Table 3A Exp. 2, DAPTTIN, 12.5 μM, w/o FIXa",85 s
same,clotting time,"Table 3A Exp. 2, DAPTTIN, 12.5 μM, w/o FIXa, duplicate 1",83.6 s
same,clotting time,"Table 3A Exp. 2, DAPTTIN, 12.5 μM, w/o FIXa, duplicate 2",85.5 s
same,average clotting time,"Table 3B, Pathromtin SL, 1 μM, 2.2 nM FIXa",105 s
same,clotting time,"Table 3B, Pathromtin SL, 1 μM, 2.2 nM FIXa, duplicate 1",103.7 s
same,clotting time,"Table 3B, Pathromtin SL, 1 μM, 2.2 nM FIXa, duplicate 2",105.9 s
same,average clotting time,"Table 3B, Pathromtin SL, 1 μM, w/o FIXa",139 s
same,clotting time,"Table 3B, Pathromtin SL, 1 μM, w/o FIXa, duplicate 1",138.3 s
same,clotting time,"Table 3B, Pathromtin SL, 1 μM, w/o FIXa, duplicate 2",138.8 s
same,average clotting time,"Table 3B, Pathromtin SL, 5 μM, 2.2 nM FIXa",88 s
same,clotting time,"Table 3B, Pathromtin SL, 5 μM, 2.2 nM FIXa, duplicate 1",86.6 s
same,clotting time,"Table 3B, Pathromtin SL, 5 μM, 2.2 nM FIXa, duplicate 2",90.2 s
same,average clotting time,"Table 3B, Pathromtin SL, 5 μM, w/o FIXa",154 s
same,clotting time,"Table 3B, Pathromtin SL, 5 μM, w/o FIXa, duplicate 1",152.6 s
same,clotting time,"Table 3B, Pathromtin SL, 5 μM, w/o FIXa, duplicate 2",155.6 s
same,average clotting time,"Table 3B, Pathromtin SL, 10 μM, 2.2 nM FIXa",78 s
same,clotting time,"Table 3B, Pathromtin SL, 10 μM, 2.2 nM FIXa, duplicate 1",76.2 s
same,clotting time,"Table 3B, Pathromtin SL, 10 μM, 2.2 nM FIXa, duplicate 2",79.8 s
same,average clotting time,"Table 3B, Pathromtin SL, 10 μM, w/o FIXa",135 s
same,clotting time,"Table 3B, Pathromtin SL, 10 μM, w/o FIXa, duplicate 1",135.7 s
same,clotting time,"Table 3B, Pathromtin SL, 10 μM, w/o FIXa, duplicate 2",134.6 s
same,average clotting time,"Table 3B, Pathromtin SL, 15 μM, 2.2 nM FIXa",75 s
same,clotting time,"Table 3B, Pathromtin SL, 15 μM, 2.2 nM FIXa, duplicate 1",75.4 s
same,clotting time,"Table 3B, Pathromtin SL, 15 μM, 2.2 nM FIXa, duplicate 2",75.2 s
same,average clotting time,"Table 3B, Pathromtin SL, 15 μM, w/o FIXa",151 s
same,clotting time,"Table 3B, Pathromtin SL, 15 μM, w/o FIXa, duplicate 1",152.8 s
same,clotting time,"Table 3B, Pathromtin SL, 15 μM, w/o FIXa, duplicate 2",149.3 s
same,average clotting time,"Table 4, 1.25 μM, 2.2 nM FIXa",95 s
same,clotting time,"Table 4, 1.25 μM, 2.2 nM FIXa, duplicate 1",94.4 s
same,clotting time,"Table 4, 1.25 μM, 2.2 nM FIXa, duplicate 2",95 s
same,average clotting time,"Table 4, 1.25 μM, w/o FIXa",107 s
same,clotting time,"Table 4, 1.25 μM, w/o FIXa, duplicate 1",106.7 s
same,clotting time,"Table 4, 1.25 μM, w/o FIXa, duplicate 2",107 s
same,average clotting time,"Table 4, 2.5 μM, 2.2 nM FIXa",93 s
same,clotting time,"Table 4, 2.5 μM, 2.2 nM FIXa, duplicate 1",93.6 s
same,clotting time,"Table 4, 2.5 μM, 2.2 nM FIXa, duplicate 2",93.3 s
same,average clotting time,"Table 4, 2.5 μM, w/o FIXa",108 s
same,clotting time,"Table 4, 2.5 μM, w/o FIXa, duplicate 1",107.9 s
same,clotting time,"Table 4, 2.5 μM, w/o FIXa, duplicate 2",107.6 s
same,average clotting time,"Table 4, 5 μM, 2.2 nM FIXa",89 s
same,clotting time,"Table 4, 5 μM, 2.2 nM FIXa, duplicate 1",89.7 s
same,clotting time,"Table 4, 5 μM, 2.2 nM FIXa, duplicate 2",88.3 s
same,average clotting time,"Table 4, 5 μM, w/o FIXa",108 s
same,clotting time,"Table 4, 5 μM, w/o FIXa, duplicate 1",108.4 s
same,clotting time,"Table 4, 5 μM, w/o FIXa, duplicate 2",107.7 s
same,average clotting time,"Table 4, 7.5 μM, 2.2 nM FIXa",81 s
same,clotting time,"Table 4, 7.5 μM, 2.2 nM FIXa, duplicate 1",80.7 s
same,clotting time,"Table 4, 7.5 μM, 2.2 nM FIXa, duplicate 2",80.5 s
same,average clotting time,"Table 4, 7.5 μM, w/o FIXa",105 s
same,clotting time,"Table 4, 7.5 μM, w/o FIXa, duplicate 1",105.2 s
same,clotting time,"Table 4, 7.5 μM, w/o FIXa, duplicate 2",105.2 s
same,average clotting time,"Table 4, 10 μM, 2.2 nM FIXa",73 s
same,clotting time,"Table 4, 10 μM, 2.2 nM FIXa, duplicate 1",72 s
same,clotting time,"Table 4, 10 μM, 2.2 nM FIXa, duplicate 2",73.2 s
same,average clotting time,"Table 4, 10 μM, w/o FIXa",104 s
same,clotting time,"Table 4, 10 μM, w/o FIXa, duplicate 1",104.4 s
same,clotting time,"Table 4, 10 μM, w/o FIXa, duplicate 2",104.5 s
same,average clotting time,"Table 4, 12.5 μM, 2.2 nM FIXa",67 s
same,clotting time,"Table 4, 12.5 μM, 2.2 nM FIXa, duplicate 1",65 s
same,clotting time,"Table 4, 12.5 μM, 2.2 nM FIXa, duplicate 2",68 s
same,average clotting time,"Table 4, 12.5 μM, w/o FIXa",100 s
same,clotting time,"Table 4, 12.5 μM, w/o FIXa, duplicate 1",99.4 s
same,clotting time,"Table 4, 12.5 μM, w/o FIXa, duplicate 2",100.5 s
same,average clotting time,"Table 4, 15 μM, 2.2 nM FIXa",56 s
same,clotting time,"Table 4, 15 μM, 2.2 nM FIXa, duplicate 1",56.1 s
same,clotting time,"Table 4, 15 μM, 2.2 nM FIXa, duplicate 2",55.5 s
same,average clotting time,"Table 4, 15 μM, w/o FIXa",78 s
same,clotting time,"Table 4, 15 μM, w/o FIXa, duplicate 1",77.8 s
same,clotting time,"Table 4, 15 μM, w/o FIXa, duplicate 2",78 s
